20 compounds from US10508085B2, “Compounds and methods for IDO and TDO modulation, and indications therefor” (Plexxikon Inc., priority 2016, dated 2019) can be followed below.

Test [1] concerns the target T1, Human Indoleamine 2,3-dioxygenase (IDO) (Homo sapiens, UniProt P14902).
T1 construct: His tag (N); made in house; host or cells: E. coli
Nature of the test: Human IDO enzymatic assay (kynurenine level). It is filed as biochemical. Particulars: 6 nM IDO, 10 μM L-Trp; geometric mean; read-out: IDO1 GMean: IC50 (μM) (Biochemical Assay). The essentials:
(§1)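 Kynurenine formed is measured after TCA quench and 50 °C hydrolysis, with % inhibition against full-reaction and no-enzyme controls (5% DMSO). IDO: 6 nM enzyme, 10 μM L-Trp, 5 μM methylene blue, 20 min; TDO: 1 nM, 350 μM L-Trp, 0.4 μM methylene blue, 70 min; both pH 6.5, room temp, E. coli-expressed His-tagged.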

In test [2] the target is T2, Human Tryptophan 2,3-dioxygenase (TDO) (Homo sapiens, UniProt P48775).
T2 construct: His tag (N); made in house; host or cells: E. coli
T2 sequence (P48775 whole entry): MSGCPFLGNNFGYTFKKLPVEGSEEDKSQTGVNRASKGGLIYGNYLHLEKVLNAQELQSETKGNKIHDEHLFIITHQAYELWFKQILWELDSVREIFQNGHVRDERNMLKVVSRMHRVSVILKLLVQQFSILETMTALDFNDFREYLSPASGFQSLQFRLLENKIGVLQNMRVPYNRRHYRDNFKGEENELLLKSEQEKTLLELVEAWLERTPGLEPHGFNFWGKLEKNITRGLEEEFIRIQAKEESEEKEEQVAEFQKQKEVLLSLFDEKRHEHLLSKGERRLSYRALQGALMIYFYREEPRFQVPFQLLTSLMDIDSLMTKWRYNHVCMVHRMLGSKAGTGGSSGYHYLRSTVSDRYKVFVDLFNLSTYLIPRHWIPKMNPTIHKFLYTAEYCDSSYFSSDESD
Nature of the test: Human TDO enzymatic assay (kynurenine level). It is filed as biochemical. Particulars: 1 nM TDO, 350 μM L-Trp; geometric mean; read-out: TDO GMean: IC50 (μM) (Biochemical Assay). The essentials: as §1

The target in test [3] is T3, human IDO (IDO1-expressing HEK293 cells) (Homo sapiens, UniProt P14902).
T3 construct: expressed in transfected cells
T3 sequence (P14902 whole entry): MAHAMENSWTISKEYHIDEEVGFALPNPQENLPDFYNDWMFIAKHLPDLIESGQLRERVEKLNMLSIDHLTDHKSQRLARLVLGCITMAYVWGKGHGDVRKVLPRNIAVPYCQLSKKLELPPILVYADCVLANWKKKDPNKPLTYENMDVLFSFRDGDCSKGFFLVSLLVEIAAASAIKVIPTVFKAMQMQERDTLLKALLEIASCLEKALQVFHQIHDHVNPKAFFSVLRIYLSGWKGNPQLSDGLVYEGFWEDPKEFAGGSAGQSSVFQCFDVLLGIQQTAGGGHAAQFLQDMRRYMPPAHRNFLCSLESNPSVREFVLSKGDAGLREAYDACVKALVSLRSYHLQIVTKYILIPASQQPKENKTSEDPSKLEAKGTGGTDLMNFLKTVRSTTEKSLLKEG
Nature of the test: Cell based kynurenine assay, IDO1-expressing HEK293 cell clones. Particulars: IDO1-expressing HEK293 cells, 24 hours, geometric mean; read-out: HEK293 IDO1 Kynurenine GMean IC50 (μM) (Cellular Assay). An outline of the steps:
(§2)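 Steps: seed IDO1- or TDO-expressing HEK293 cells at 2.5×10^4 per well; add compound dilutions; incubate 24 h; transfer supernatant and determine kynurenine; derive IC50 via nonlinear regression of percent inhibition.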

For test [4], the target named is T4, human TDO (TDO-expressing HEK293 cells) (Homo sapiens, UniProt P48775).
T4 construct: expressed in transfected cells
T4 sequence (P48775 whole entry): as the sequence (P48775 whole entry) above
As to the kind of experiment: Cell based kynurenine assay, TDO-expressing HEK293 cell clones. To be noted: TDO-expressing HEK293 cells, 24 hours, geometric mean; read-out: HEK293 TDO Kynurenine GMean IC50 (μM) (Cellular Assay). The essentials: as §2

SMILES strings stand for the structures.

T1 sequence (P14902 whole entry): as the sequence (P14902 whole entry) above

For `O=C(NCC1(O)CC1)N1CCC(C(F)(F)C(O)c2cc(Cl)cc3cn[nH]c23)CC1` (centres unmarked) [Compound P-0465, 4-(2-(5-chloro-1H-indazol-7-yl)-1,1-difluoro-2-hydroxyethyl)-N-((1-hydroxycyclopropyl)methyl)piperidine-1-carboxamide], the IC50 in test [1], in test [2], in test [3] and in test [4] was 0.0001 to 10 µM in each case.
Take `CC(C)(O)CNC(=O)N1CCC(C(F)(F)C(O)c2cc(Cl)cc3cn[nH]c23)CC1` (centres unmarked) [Compound P-0466, 4-(2-(5-chloro-1H-indazol-7-yl)-1,1-difluoro-2-hydroxyethyl)-N-(2-hydroxy-2-methylpropyl) piperidine-1-carboxamide]: the IC50 in test [1], in test [2], in test [3] and in test [4] was 0.0001 to 10 µM in each case.
Regarding `O=C(NCC1CCS(=O)(=O)CC1)N1CCC(C(F)(F)C(O)c2cc(Cl)cc3cn[nH]c23)CC1` (centres unmarked) [Compound P-0467, 4-(2-(5-chloro-1H-indazol-7-yl)-1,1-difluoro-2-hydroxyethyl)-N-((1,1-dioxidotetrahydro-2H-thiopyran-4-yl)methyl)piperidine-1-carboxamide], the IC50 in test [1] was 0.0001 to 10 µM; in test [2], 0.0001 to 10 µM; in test [3], 0.0001 to 10 µM; in test [4], > 10 µM.
As for `O=C(NCC1CCOCC1)N1CCC(C(F)(F)C(O)c2cc(Cl)cc3cn[nH]c23)CC1` (centres unmarked) [Compound P-0468, 4-(2-(5-chloro-1H-indazol-7-yl)-1,1-difluoro-2-hydroxyethyl)-N-((tetrahydro-2H-pyran-4-yl)methyl)piperidine-1-carboxamide], the IC50 in test [1], in test [2], in test [3] and in test [4] was 0.0001 to 10 µM in each case.
Regarding `CC(C)(C)OC(=O)N1CCC(C(F)(F)C(O)c2cc(Cl)cc3cn[nH]c23)CC1` (centres unmarked) [Compound P-0469, tert-butyl 4-(2-(5-chloro-1H-indazol-7-yl)-1,1-difluoro-2-hydroxyethyl) piperidine-1-carboxylate], the IC50 in test [1], in test [2], in test [3] and in test [4] was 0.0001 to 10 µM throughout.
In the case of `CC(C)(C1CCN(C(=O)Nc2cccs2)CC1)C(O)c1cc(Cl)cc2cn[nH]c12` (centres unmarked) [Compound P-0470, 4-(1-(5-chloro-1H-indazol-7-yl)-1-hydroxy-2-methylpropan-2-yl)-N-(thiophen-2-yl)piperidine-1-carboxamide], the concentration for half-maximal inhibition (IC50) in test [1], in test [2], in test [3] and in test [4] was 0.0001 to 10 µM throughout.
For the compound `CC(C)(C1CCN(C(=O)NCS(C)(=O)=O)CC1)C(O)c1cc(Cl)cc2cn[nH]c12` (centres unmarked) [Compound P-0471, 4-(1-(5-chloro-1H-indazol-7-yl)-1-hydroxy-2-methylpropan-2-yl)-N-((methylsulfonyl)methyl)piperidine-1-carboxamide], the IC50 in test [1], in test [2], in test [3] and in test [4] was 0.0001 to 10 µM each time.
Consider `CC(C)(C1CCN(C(=O)NCCC(F)(F)F)CC1)C(O)c1cc(Cl)cc2cn[nH]c12` (centres unmarked) [Compound P-0472, 4-(1-(5-chloro-1H-indazol-7-yl)-1-hydroxy-2-methylpropan-2-yl)-N-(3,3,3-trifluoropropyl) piperidine-1-carboxamide], for which the IC50 in test [1], in test [2], in test [3] and in test [4] was 0.0001 to 10 µM in each case.
For the compound `CC(C)(C1CCN(C(=O)NCC2CC2)CC1)C(O)c1cc(Cl)cc2cn[nH]c12` (centres unmarked) [Compound P-0473, 4-(1-(5-chloro-1H-indazol-7-yl)-1-hydroxy-2-methylpropan-2-yl)-N-(cyclopropylmethyl) piperidine-1-carboxamide], the concentration for half-maximal inhibition (IC50) in test [1], in test [2], in test [3] and in test [4] was 0.0001 to 10 µM each time.
Regarding `CC(C)(C1CCN(C(=O)C2C(C)(C)C2(C)C)CC1)C(O)c1cc(Cl)cc2cn[nH]c12` (centres unmarked) [Compound P-0474, (4-(1-(5-chloro-1H-indazol-7-yl)-1-hydroxy-2-methylpropan-2-yl)piperidin-1-yl)(2,2,3,3-tetramethylcyclopropyl) methanone], the 50% inhibitory concentration (IC50) in test [1], in test [2], in test [3] and in test [4] was 0.0001 to 10 µM each time.
`CC(C)(O)CNC(=O)N1CCC(C(C)(C)C(O)c2cc(Cl)cc3cn[nH]c23)CC1` (centres unmarked) [Compound P-0475, 4-(1-(5-chloro-1H-indazol-7-yl)-1-hydroxy-2-methylpropan-2-yl)-N-(2-hydroxy-2-methylpropyl) piperidine-1-carboxamide]: the IC50 in test [1], in test [2], in test [3] and in test [4] was 0.0001 to 10 µM throughout.
Turning to `CC(C)(C1CCN(C(=O)NCCO)CC1)C(O)c1cc(Cl)cc2cn[nH]c12` (centres unmarked) [Compound P-0476, 4-(1-(5-chloro-1H-indazol-7-yl)-1-hydroxy-2-methylpropan-2-yl)-N-(2-hydroxyethyl) piperidine-1-carboxamide], the IC50 in test [1], in test [2], in test [3] and in test [4] was 0.0001 to 10 µM throughout.
For `CC(C)(C1CCN(C(=O)NCc2ccccn2)CC1)C(O)c1cc(Cl)cc2cn[nH]c12` (centres unmarked) [Compound P-0477, 4-(1-(5-chloro-1H-indazol-7-yl)-1-hydroxy-2-methylpropan-2-yl)-N-(pyridin-2-ylmethyl)piperidine-1-carboxamide], the IC50 in test [1], in test [2], in test [3] and in test [4] was 0.0001 to 10 µM each time.
For the compound `C[C@H](NC(=O)N1CCC(C(C)(C)C(O)c2cc(Cl)cc3cn[nH]c23)CC1)c1ccccn1` (stereo partly drawn) [Compound P-0478, 4-(1-(5-chloro-1H-indazol-7-yl)-1-hydroxy-2-methylpropan-2-yl)-N-((S)-1-(pyridin-2-yl)ethyl)piperidine-1-carboxamide], the IC50 in test [1], in test [2], in test [3] and in test [4] was 0.0001 to 10 µM throughout.
Turning to `C[C@@H](NC(=O)N1CCC(C(C)(C)C(O)c2cc(Cl)cc3cn[nH]c23)CC1)c1ccccn1` (stereo partly drawn) [Compound P-0479, 4-(1-(5-chloro-1H-indazol-7-yl)-1-hydroxy-2-methylpropan-2-yl)-N-((R)-1-(pyridin-2-yl)ethyl)piperidine-1-carboxamide], the IC50 in test [1], in test [2], in test [3] and in test [4] was 0.0001 to 10 µM in each case.
Regarding `O=C(CC1CCOCC1)N1CCC(C(F)(F)C(O)c2cc(Cl)cc3cn[nH]c23)CC1` (centres unmarked) [Compound P-0480, 1-(4-(2-(5-chloro-1H-indazol-7-yl)-1,1-difluoro-2-hydroxyethyl)piperidin-1-yl)-2-(tetrahydro-2H-pyran-4-yl)ethan-1-one], the half-maximal inhibitory concentration (IC50) in test [1], in test [2], in test [3] and in test [4] was 0.0001 to 10 µM each time.
As for `O=C(CC1CCS(=O)(=O)CC1)N1CCC(C(F)(F)C(O)c2cc(Cl)cc3cn[nH]c23)CC1` (centres unmarked) [Compound P-0481, 1-(4-(2-(5-chloro-1H-indazol-7-yl)-1,1-difluoro-2-hydroxyethyl)piperidin-1-yl)-2-(1,1-dioxidotetrahydro-2H-thiopyran-4-yl)ethan-1-one], the IC50 in test [1] was 0.0001 to 10 µM; in test [2], 0.0001 to 10 µM; in test [3], 0.0001 to 10 µM; in test [4], > 10 µM.
`O=C(NCC1COC1)N1CCC(C(F)(F)C(O)c2cc(Cl)cc3cn[nH]c23)CC1` (centres unmarked) [Compound P-0482, 4-(2-(5-chloro-1H-indazol-7-yl)-1,1-difluoro-2-hydroxyethyl)-N-(oxetan-3-ylmethyl)piperidine-1-carboxamide]: the IC50 in test [1], in test [2], in test [3] and in test [4] was 0.0001 to 10 µM throughout.
Regarding `N#Cc1ccc(NC(=O)N2CCC(C(F)(F)C(O)c3cc(Cl)cc4cn[nH]c34)CC2)cc1` (centres unmarked) [Compound P-0483, 4-(2-(5-chloro-1H-indazol-7-yl)-1,1-difluoro-2-hydroxyethyl)-N-(4-cyanophenyl) piperidine-1-carboxamide], the IC50 in test [1], in test [2], in test [3] and in test [4] was 0.0001 to 10 µM each time.
`O=C(Nc1ccc(Cl)cc1)N1CCC(C(F)(F)C(O)c2cc(Cl)cc3cn[nH]c23)CC1` (centres unmarked) [Compound P-0484, 4-(2-(5-chloro-1H-indazol-7-yl)-1,1-difluoro-2-hydroxyethyl)-N-(4-chlorophenyl) piperidine-1-carboxamide]: the IC50 in test [1], in test [2], in test [3] and in test [4] was 0.0001 to 10 µM each time.

As usually defined, the IC50 is the concentration needed to halve the response being measured.
